Data as given in patent US20260109707A1, “HETEROBIFUNCTIONAL COMPOUNDS AND METHODS OF TREATING DISEASE” (Halda Therapeutics OpCo. Inc., priority 2022, published 2026).
Read-outs that look alike come from different tables or passages of the source.

Key:
[1] = system: T-Rex 293 cell line SC3 cells lacking increased expression of androgen receptor protein; assay: Cellular growth inhibition assay, T-Rex 293 SC3 cells without doxycycline (CellTiter-Glo, 72 hours); assay type: cell-based; settings: T-Rex 293 cell line SC3 cells not exposed to doxycycline (lacking increased androgen receptor expression)
Procedure, shortened: (§1)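 Doxycycline (10 ng/mL) was either included or omitted to toggle wild-type androgen receptor expression in SC3 cells, a T-Rex 293 clone, grown in stripped-serum, phenol red-free medium. After 72 hours with compound, viable cells were quantified by CellTiter-Glo 2.0.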

[2] = system: VCaP cells; assay: Cellular growth inhibition assay for VCaP cells (CellTiter-Glo, 72 hours); assay type: cell-based, human
Procedure, shortened: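 Luminescent viability signal after 72 h of compound exposure gave GI50 values by four-parameter nonlinear regression. Compounds were added in 0.5% DMSO to cells plated 24 h earlier at 5000/well in DMEM containing 10% FBS.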

[3] = system: T-Rex 293 cell line SC3 cells having increased expression of androgen receptor protein due to exposure to doxycycline; assay: Cellular growth inhibition assay, T-Rex 293 SC3 cells with doxycycline (CellTiter-Glo, 72 hours); assay type: cell-based; settings: T-Rex 293 SC3 cells with increased androgen receptor expression due to doxycycline (10 ng/mL)
Procedure, shortened: as §1

SMILES	GI50 ([1]; 72 h) [nM]	GI50 ([2]; Homo sapiens, VCaP, 72 h) [nM]	GI50 ([3]; 72 h) [nM]	GI50 [1] [nM]	GI50 [2] [nM]	GI50 [3] [nM]
Cc1sc2c(c1C)C(c1ccc(NCCCN3CCN(c4ncc(C(=O)N[C@H]5CC[C@H](Oc6ccc(C#N)c(Cl)c6)CC5)cn4)CC3)cc1)=NC(Cc1ncco1)c1nnc(C)n1-2 (stereo partly drawn) [I-793]	< 500	< 500	< 500	–	–	–
Cc1sc2c(c1C)C(c1ccc(C3CCC4(CC3)CCN(c3ccc(C(=O)N[C@H]5CC[C@H](Oc6ccc(C#N)c(Cl)c6)CC5)nn3)CC4)cc1)=N[C@@H](C)c1nnc(C)n1-2 [I-590]	< 500	> 3000	< 500	–	–	–
Cc1sc2c(c1C)C(c1ccc(N3C[C@@]4(C)CN(c5ccc(C(=O)N[C@H]6CC[C@H](Oc7ccc(C#N)c(Cl)c7)CC6)nn5)C[C@@]4(C)C3)cc1)=N[C@@H](C)c1nnc(C)n1-2 [I-704]	> 3000	500 to 1500	< 500	–	–	–
Cc1sc2c(c1C)C(c1ccc(C3CCC4(CC3)CCN(c3ccc(C(=O)N[C@H]5CC[C@H](Oc6ccc(C#N)c(Cl)c6)CC5)nn3)CC4)cc1)=NC1(CC1)c1nnc(C)n1-2 [I-532]	> 3000	< 500	< 500	–	–	–
Cc1sc2c(c1C)C(c1ccc(OC3CCC4(CCCN(c5ccc(C(=O)N[C@H]6CC[C@H](Oc7ccc(C#N)c(Cl)c7)CC6)nn5)C4)C3)cc1)=NC1(CC1)c1nnc(C)n1-2 (stereo partly drawn) [I-525]	–	–	–	> 3000	< 500	< 500
Cc1sc2c(c1C)C(c1ccc(N3CC(C4CCN(c5ccc(C(=O)N[C@H]6CC[C@H](Oc7ccc(C#N)c(Cl)c7)CC6)nn5)CC4)C3)cn1)=N[C@@H](C)c1nnc(C)n1-2 [I-464]	> 3000	< 500	< 500	–	–	–
Cc1sc2c(c1C)C(c1ccc(C3CCC4(CC3)CCN(c3ccc(C(=O)N[C@H]5CC[C@H](Oc6ccc(C#N)c(Cl)c6)CC5)nn3)C4)nc1)=NC1(CC1)c1nnc(C)n1-2 (stereo partly drawn) [I-607]	–	–	< 500	> 3000	> 3000	–
Cc1sc2c(c1C)C(c1ccc(C3CN(C4CCN(c5ccc(C(=O)N[C@H]6CC[C@H](Oc7ccc(C#N)c(Cl)c7)CC6)nn5)CC4)C3)cc1)=N[C@@H](C)c1nnc(C)n1-2 [I-560]	< 500	1500 to 3000	< 500	–	–	–
Cc1sc2c(c1C)C(c1ccc(CCC3CCN(c4ccc(C(=O)NC5CCC(Oc6ccc(C#N)c(Cl)c6)CC5)nn4)CC3)cc1)=NC(C)c1nnc(C)n1-2 (stereo not drawn) [I-593]	< 500	< 500	< 500	–	–	–
Cc1sc2c(c1C)C(c1cccc(CC3CCC4(CC3)CCN(c3ccc(C(=O)N[C@H]5CC[C@H](Oc6ccc(C#N)c(Cl)c6)CC5)nn3)C4)c1)=N[C@@H](C)c1nnc(C)n1-2 (stereo partly drawn) [I-713]	–	< 500	–	> 3000	–	> 3000
Cc1sc2c(c1C)C(c1ccc(COC3CCC4(C3)CN(c3ccc(C(=O)N[C@H]5CC[C@H](Oc6ccc(C#N)c(Cl)c6)CC5)nn3)CCO4)cc1)=N[C@@H](C)c1nnc(C)n1-2 (stereo partly drawn) [I-586]	< 500	–	–	–	500 to 1500	< 500
Cc1sc2c(c1C)C(c1ccc(NCCCC3CCN(c4ncc(C(=O)N[C@H]5CC[C@H](Oc6ccc(C#N)c(Cl)c6)CC5)cn4)CC3)cc1)=NC(Cc1ncco1)c1nnc(C)n1-2 (stereo partly drawn) [I-806]	< 500	< 500	< 500	–	–	–
Cc1sc2c(c1C)C(c1cccc(OC3CC4(CCCN(c5ccc(C(=O)N[C@H]6CC[C@H](Oc7ccc(C#N)c(Cl)c7)CC6)nn5)C4)C3)c1)=N[C@@H](C)c1nnc(C)n1-2 (stereo partly drawn) [I-715]	–	–	–	500 to 1500	< 500	< 500
Cc1sc2c(c1C)C(c1ccc(N3C[C@@H]4CN(c5ccc(C(=O)N[C@H]6CC[C@H](Oc7ccc(C#N)c(Cl)c7)CC6)nn5)C[C@H]4C3)cc1)=N[C@@H](C)c1nnc(C)n1-2 [I-706]	–	–	–	< 500	< 500	< 500
Cc1sc2c(c1C)C(c1ccc(C#CC3CC4(C3)CN(c3ccc(C(=O)N[C@H]5CC[C@H](Oc6ccc(C#N)c(Cl)c6)CC5)nn3)C4)cn1)=N[C@@H](C)c1nnc(C)n1-2 [I-458]	< 500	< 500	< 500	–	–	–
Cc1sc2c(c1C)C(c1ccc(N3CCC4(CC3)CCN(c3ccc(C(=O)N[C@H]5CC[C@H](Oc6ccc(C#N)c(Cl)c6)CC5)nn3)C4)cc1F)=N[C@@H](C)c1nnc(C)n1-2 [I-767]	–	–	–	< 500	< 500	< 500
Cc1sc2c(c1C)C(c1ccc(N3CC(C4CCN(c5ccc(C(=O)N[C@H]6CC[C@H](Oc7ccc(C#N)c(Cl)c7)CC6)nn5)C4)C3)cc1)=N[C@@H](C)c1nnc(C)n1-2 (stereo partly drawn) [I-555]	< 500	< 500	< 500	–	–	–
